{"source": "paper PMC11695783", "about": "(Frontiers in Pharmacology, 2024)", "key": {"Mycoplasma pneumoniae": {"test_system": "Mycoplasma pneumoniae", "test": "In vivo pharmacodynamic study: Mycoplasma pneumoniae loads in BALF of infected mice", "design": "species or system BALB/c mice", "details": "for microbial reduction in BALF: 96 h; for MPcounts in BALF (AV) / MPcounts in BALF: tiamulin 40 mg/kg IM; for MPcounts in BALF (AV): group AV; for MPcounts in BALF: individual mice, listed as TiamulinIM", "method": "(§1) Adult BALB/c mice (20–22 g) were divided into a control group, a positive group, and compound 16C groups at low (20 mg/kg), medium (40 mg/kg), and high-dose (80 mg/kg) levels and oral and intramuscular tiamulin treatment groups (40 mg/kg). We formulated the above dose range based on the dose at which tiamulin was approved for injection (10–20 mg/kg) and the dose previously reported (45 mg/kg) ([EMA, 1999]; [Xiao et al., 2016]). In summary, we selected similar doses for compound 16C in vivo study. 40 mg/kg was used as an intermediate value, one-half of it as a low dose, and two times of it as a high dose. To prepare the challenge solution, logarithmic phase culture suspensions were centrifuged at 1700 g for 10 min, and the pellets were suspended in sterile PBS to obtain 1 × 10^9 CFU/mL. Before the challenge, mice were anesthetized with tribromoethanol (250 mg/kg, IP). Mice in the control groups were intratracheally inoculated with sterile PBS, whereas mice in the other groups were intratracheally challenged with 50 μL (1 × 10^9 CFU/mL) M. pneumoniae suspension once a day for 3 days. Compound 16C and tiamulin (tiamulin-IM group) dissolved using the method mentioned in pharmacokinetic studies, and the tiamulin fumarate soluble powder was dissolved in ddH2O for oral administration. After the final challenge, antibiotics were administered at low, medium, and high-dose levels (see above) at 10 a.m. and 10 p.m. daily for 4 consecutive days. Normal saline containing 5% DMSO and 5% Tween-80 was administered as control and positive groups by thigh intramuscular injection. To compare the efficacy of compound 16C and tiamulin under the same route of administration, we used the original tiamulin for intramuscular administration in the same formulation. On the other hand, tiamulin fumarate soluble powder, approved for oral administration to treat animal mycoplasma diseases in China, was administered to mice by gavage. Based on a clinical study of lefamulin in community-acquired bacterial pneumonia (CABP), subjects were administered twice a day and the 96 ± 24 h of starting treatment was an essential point for early clinical response (ECR) ([Paukner et al., 2022]). We therefore stopped treatment at 96 h and sampled at 192 h to explore whether the disease worsened after cessation of treatment. Bronchoalveolar lavage fluid (BALF) and lungs were collected at 0, 96, 192 h (Samples of 0 h were collected before starting treatment, and mice were fed ad libitum without drug treatment during 96–192 h) after the first dose, BALF for cytokine and cytological analysis and lung for histopathological evaluation.\n(§2) Bronchoalveolar lavage was performed according to a standardized method ([Van Hoecke et al., 2017]). BALF was obtained following infusion of 0.5 mL PBS via tracheal cannulation into the lung twice (total 1 mL), and 200 µL was used for mycoplasma counts. The remaining BALF was centrifuged at 300 g for 10 min to separate the debris. The supernatants were stored at −80°C, and the debris was resuspended in the same volume of PBS containing red blood cell lysis buffer. A hemocytometer was used to count total cell numbers in BALF, and cell smears (Diff-Quik staining) were prepared to calculate the percentages of neutrophils, macrophages, and lymphocytes. IFN-γ, TNF-α, and CXCL1 levels in BALF samples were assessed using commercial ELISA kits using guidelines recommended by the manufacturer (Elabscience, Wuhan, China). Parallel data for each experimental group at each time point were obtained from six different mice."}, "IFN-γ": {"test_system": "IFN-γ", "test": "IFN-γ in BALF of M. pneumoniae-infected mice (ELISA)", "assay_type": "in vivo, BALB/c mice", "details": "tiamulin 40 mg/kg IM; for IFN-γ in BALF (AV): group AV; for IFN-γ in BALF: individual mice, listed as Tiamulin-IM", "method": "as §1, §2"}, "CXCL1": {"test_system": "CXCL1", "test": "CXCL1 in BALF of M. pneumoniae-infected mice (ELISA)", "assay_type": "in vivo, BALB/c mice", "details": "for CXCL1 in BALF (AV): group AV; for CXCL1 in BALF: individual mice", "method": "as §1, §2"}, "[1]": {"test_system": "Mycoplasma pneumoniae-infected mice (lung tissue)", "test": "Histopathological assessment of lung tissue (HPS, response and recovery rates) in M. pneumoniae-infected mice", "assay_type": "in vivo, BALB/c mice", "design": "HPS value (mean) / HPS: scale not given here", "details": "for HPS: individual mice, listed as TiamulinIM", "method": "as §1\nLung tissues were collected at 0, 96, and 192 h following drug administration. Lungs were collected from 6 mice in each group at 96 h and 13–15 mice in each group at 192 h. In addition, the lungs of 8 untreated infected mice were taken at 0 h as initial controls. Lung tissues were fixed in 4% paraformaldehyde, and whole-mount sections of paraffin-embedded lungs were stained with hematoxylin and eosin (H&E). The histopathologic score (HPS) was determined according to published protocols by a single pathologist who was unaware of the treatment status and groups of the animals ([Cimolai et al., 1992]). The HPS was based on individual grading of peribronchiolar/bronchial infiltrate, bronchiolar/bronchial luminal exudate, perivascular infiltrate, and parenchymal pneumoniae."}, "[2]": {"details": "tiamulin 40 mg/kg IM, 96 h, listed as Tiamulin-IM"}, "[3]": {"details": "M. pneumoniae-infected mice, IM, n=13-15"}, "[4]": {"details": "M. pneumoniae-infected mice, PO, n=13-15"}, "[5]": {"details": "tiamulin 40 mg/kg IM, from HPS at 192 h"}}, "note": "Values joined by “and” are separate entries in the source; they are usually repeats but may differ in a detail not shown here. Equal entries are not always repeated.", "data": [{"smiles": "C=C[C@]1(C)C[C@@H](OC(=O)CSCCN(CC)CC)[C@]2(C)[C@H](C)CC[C@]3(CCC(=O)[C@H]32)[C@@H](C)[C@@H]1O", "note": "[tiamulin, Tiamulin, reference compound]", "values": [{"measurement": "microbial reduction in BALF", "setting": "Mycoplasma pneumoniae; tiamulin 40 mg/kg IM twice daily 4 d", "value": 2.26, "unit": "log10 CFU/mL"}, {"measurement": "MPcounts in BALF (AV)", "setting": "Mycoplasma pneumoniae; 96h", "value": 3.805, "unit": "Log10CFU/mL"}, {"measurement": "MPcounts in BALF", "setting": "Mycoplasma pneumoniae; 96h", "value": "3.506 Log10CFU/mL and 3.899 Log10CFU/mL and 3.382 Log10CFU/mL and 5.052 Log10CFU/mL and 3.608 Log10CFU/mL and 3.384 Log10CFU/mL"}, {"measurement": "MPcounts in BALF (AV)", "setting": "Mycoplasma pneumoniae; 192 h", "value": 3.657, "unit": "Log10CFU/mL"}, {"measurement": "MPcounts in BALF", "setting": "Mycoplasma pneumoniae; 192h", "value": "3.57 Log10CFU/mL (2×) and 3.868 Log10CFU/mL and 3.692 Log10CFU/mL and 3.619 Log10CFU/mL and 3.625 Log10CFU/mL"}, {"measurement": "microbial reduction in BALF", "setting": "Mycoplasma pneumoniae; tiamulin 40 mg/kg PO (tiamulin fumarate soluble powder) twice daily 4 d", "value": 1.17, "unit": "log10 CFU/mL"}, {"measurement": "IFN-γ in BALF (AV)", "setting": "IFN-γ; 96h", "value": 32.2202, "unit": "pg/mL"}, {"measurement": "IFN-γ in BALF", "setting": "IFN-γ; 96 h", "value": "44.0596 pg/mL and 23.033 pg/mL and 20.7601 pg/mL and 28.3723 pg/mL and 44.8757 pg/mL"}, {"measurement": "IFN-γ in BALF (AV)", "setting": "IFN-γ; 192 h", "value": 31.227, "unit": "pg/mL"}, {"measurement": "IFN-γ in BALF", "setting": "IFN-γ; 192 h", "value": "40.7875 pg/mL and 41.6067 pg/mL and 42.4252 pg/mL and 23.316 pg/mL and 21.0452 pg/mL and 18.1814 pg/mL"}, {"measurement": "CXCL1 in BALF (AV)", "setting": "CXCL1; [2]", "value": 35.2692, "unit": "pg/mL"}, {"measurement": "CXCL1 in BALF", "setting": "CXCL1; [2]", "value": "32.338 pg/mL and 47.9047 pg/mL and 25.7589 pg/mL and 33.1238 pg/mL and 37.221 pg/mL"}, {"measurement": "CXCL1 in BALF (AV)", "setting": "CXCL1; tiamulin 40 mg/kg IM, 192 h", "value": 47.4109, "unit": "pg/mL"}, {"measurement": "CXCL1 in BALF", "setting": "CXCL1; tiamulin 40 mg/kg IM, 192 h, listed as Tiamulin-IM", "value": "47.2576 pg/mL and 36.3942 pg/mL and 46.6093 pg/mL and 59.3827 pg/mL"}, {"measurement": "CXCL1 in BALF (AV)", "setting": "CXCL1; tiamulin 40 mg/kg PO (fumarate soluble powder), 96 h", "value": 40.932, "unit": "pg/mL"}, {"measurement": "CXCL1 in BALF (AV)", "setting": "CXCL1; tiamulin 40 mg/kg PO (fumarate soluble powder), 192 h", "value": 46.955, "unit": "pg/mL"}, {"measurement": "Recovery", "setting": "[1]; [3]", "value": 35.7, "unit": "%"}, {"measurement": "Response", "setting": "[1]; [3]", "value": 100, "unit": "%"}, {"measurement": "Recovery", "setting": "[1]; [4]", "value": 6.67, "unit": "%"}, {"measurement": "Response", "setting": "[1]; [4]", "value": 86.67, "unit": "%"}, {"measurement": "HPS value (mean)", "setting": "[1]; tiamulin 40 mg/kg IM, 96 h", "value": 1}, {"measurement": "HPS", "setting": "[1]; tiamulin 40 mg/kg IM, 96h", "value": "2.5 and 0.5 and 1"}, {"measurement": "HPS", "setting": "[1]; tiamulin 40 mg/kg IM, 192h", "value": "0.5 and 0 and 1"}, {"measurement": "Recovery", "setting": "[1]; [5]", "value": 35.7, "unit": "%"}, {"measurement": "Response", "setting": "[1]; [5]", "value": 100, "unit": "%"}]}]}
